Biological target: hTREM2 (Homo sapiens, UniProt Q9NZC2)
Experiment: Phospho-Syk AlphaScreen/AlphaLISA assay in TREM2 and DAP12 overexpressing HEK293 cells (Example A1)
Assay type: cell-based
Design: expressed in transfected cells
Details: HEK293 cells; for EC50: read-out: hTREM2 EC50
Method in brief: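 Agonism read as Syk phosphorylation: compounds in 1% DMSO applied 45 min at room temperature to TREM2/DAP12-HEK293 cells after 20 h culture. Lysis buffer with phosphatase inhibitors and anti-phospho-Syk plus biotinylated anti-Syk antibodies, then AlphaLISA beads (680 nm excitation); percent of control computed from antibody/isotype wells, curves fitted sigmoidally.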

hTREM2, sequence (Q9NZC2 19-230): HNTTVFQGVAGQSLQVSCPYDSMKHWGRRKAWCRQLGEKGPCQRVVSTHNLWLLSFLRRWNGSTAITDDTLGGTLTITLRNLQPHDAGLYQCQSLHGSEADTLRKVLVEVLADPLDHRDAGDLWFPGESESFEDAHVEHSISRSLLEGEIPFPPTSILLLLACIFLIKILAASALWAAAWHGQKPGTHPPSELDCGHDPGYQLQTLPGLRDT
hTREM2, sequence (O43914 22-113 partner): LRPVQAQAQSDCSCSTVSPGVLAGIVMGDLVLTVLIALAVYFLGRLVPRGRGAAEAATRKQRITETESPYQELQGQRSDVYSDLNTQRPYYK

SMILES	Emax	EC50 [nM]
Cc1nc2cc(N3CCO[C@@H](c4cnn(C)c4)C3)nc(-c3ccc(C(F)(F)F)cc3F)c2c(=O)n1C [Example 13, 5-(2-fluoro-4-(trifluoromethyl)phenyl)-2,3-dimethyl-7-((2S)-2-(1-methyl-1H-pyrazol-4-yl)-4-morpholinyl)pyrido[4,3-d]pyrimidin-4(3H)-one]	++++ (Emax>300)	50 to 500
Cc1nc2cc(N3CCO[C@@H](c4cnn(C)c4)C3)nc(-c3ccc(Cl)c(F)c3F)c2c(=O)n1C [Example 14, 5-(4-chloro-2,3-difluorophenyl)-2,3-dimethyl-7-((2S)-2-(1-methyl-1H-pyrazol-4-yl)-4-morpholinyl) pyrido[4,3-d]pyrimidin-4(3H)-one]	++++ (Emax>300)	50 to 500
Cc1nc2cc(N3CCOC(c4cnn(C)c4)C3)cc(-c3ncc(Cl)cc3F)c2c(=O)n1C (centres unmarked) [Example 15, 5-(5-chloro-3-fluoro-2-pyridinyl)-2,3-dimethyl-7-(2-(1-methyl-1H-pyrazol-4-yl)-4-morpholinyl)-4(3H)-quinazolinone]	++++ (Emax>300)	500 to 3000
Cc1cc(Cl)cnc1-c1nc(N2CCOC(c3cnn(C)c3)C2)cc2nc(C)n(C)c(=O)c12 (centres unmarked) [Example 16, 5-(5-chloro-3-methyl-2-pyridinyl)-2,3-dimethyl-7-(2-(1-methyl-1H-pyrazol-4-yl)-4-morpholinyl)pyrido[4,3-d]pyrimidin-4(3H)-one]	+ (Emax>45 and ≤100)	3000 to 100000
Cc1nc2cc(N3CCO[C@@H](c4cnn(C)c4)C3)nc(-c3ccc(C(F)(F)F)nc3)c2c(=O)n1C [Example 17, 2,3-dimethyl-7-((2S)-2-(1-methyl-1H-pyrazol-yl)-4-morpholinyl)-5-(6-(trifluoromethyl)-3-pyridinyl)pyrido[4,3-d]pyrimidin-4(3H)-one]	–	500 to 3000
Cc1nc2cc(N3CCO[C@@H](c4cnn(C)c4)C3)nc(-c3ccc(Cl)cc3F)c2c(=O)n1C1CCCCC1 [Example 18, 5-(4-chloro-2-fluorophenyl)-3-cyclohexyl-2-methyl-7-((2S)-2-(1-methyl-1H-pyrazol-4-yl)-4-morpholinyl)pyrido[4,3-d]pyrimidin-4(3H)-one]	++ (Emax>100 and ≤200)	500 to 3000
Cc1nc2cc(N3CCO[C@@H](c4cnn(C)c4)C3)nc(-c3ccc(Cl)cc3F)c2c(=O)n1C1CC1 [Example 20, 5-(4-chloro-2-fluorophenyl)-3-cyclopropyl-2-methyl-7-((2S)-2-(1-methyl-1H-pyrazol-4-yl)-4-morpholinyl)pyrido[4,3-d]pyrimidin-4(3H)-one]	++++ (Emax>300)	50 to 500
CCCn1c(C)nc2cc(N3CCOC(c4cnn(C)c4)C3)nc(-c3ncc(Cl)cc3F)c2c1=O (centres unmarked) [Example 21, 5-(5-chloro-3-fluoro-2-pyridinyl)-2-methyl-7-(2-(1-methyl-1H-pyrazol-4-yl)-4-morpholinyl)-3-propylpyrido-[4,3-d]pyrimidin-4(3H)-one]	++++ (Emax>300)	50 to 500
Cc1nc2cc(N3CCOC(C)(c4cnn(C)c4)C3)nc(-c3ccc(Cl)cc3F)c2c(=O)n1C (centres unmarked) [Example 31, 5-(4-chloro-2-fluorophenyl)-2,3-dimethyl-7-(2-methyl-2-(1-methyl-1H-pyrazol-4-yl)-4-morpholinyl)pyrido[4,3-d]pyrimidin-4(3H)-one]	++++ (Emax>300)	3000 to 100000
Cc1nc2cc(N3CCOC(C4CCC4)C3)nc(-c3ccc(Cl)cc3F)c2c(=O)n1C (centres unmarked) [Example 33, 5-(4-chloro-2-fluorophenyl)-7-(2-cyclobutyl-4-morpholinyl)-2,3-dimethylpyrido[4,3-d]pyrimidin-4(3H)-one]	++++ (Emax>300)	500 to 3000
Cc1nc2cc(N3CCOC(c4ccnnc4)C3)nc(-c3ccc(Cl)cc3F)c2c(=O)n1C (centres unmarked) [Example 50, 5-(4-chloro-2-fluorophenyl)-2,3-dimethyl-7-(2-(4-pyridazinyl)-4-morpholinyl)pyrido[4,3-d]pyrimidin-4(3H)-one]	++++ (Emax>300)	50 to 500
Cc1nc2cc(N3CCOC(c4cncnc4)C3)nc(-c3ccc(Cl)cc3F)c2c(=O)n1C (centres unmarked) [Example 51, 5-(4-chloro-2-fluorophenyl)-2,3-dimethyl-7-(2-(5-pyrimidinyl)-4-morpholinyl)pyrido[4,3-d]pyrimidin-4(3H)-one]	+++ (Emax>200 and ≤300)	50 to 500

Continued, values first:

Emax	EC50 [nM]	SMILES
++++ (Emax>300)	50 to 500	Cc1nc2cc(N3CCO[C@@H](c4cnn(C)c4)C3)nc(-c3ccc(Cl)c(F)c3)c2c(=O)n1C [Example 7, 5-(4-chloro-3-fluorophenyl)-2,3-dimethyl-7-((2S)-2-(1-methyl-1H-pyrazol-4-yl)-4-morpholinyl)pyrido[4,3-d]pyrimidin-4(3H)-one]
++++ (Emax>300)	50 to 500	Cc1nc2cc(N3CCO[C@@H](c4cnn(C)c4)C3)nc(-c3ccc(F)cc3F)c2c(=O)n1C [Example 8, 5-(2,4-difluorophenyl)-2,3-dimethyl-7-((2S)-2-(1-methyl-1H-pyrazol-4-yl)-4-morpholinyl)-pyrido[4,3-d]pyrimidin-4(3H)-one]
+++ (Emax>200 and ≤300)	50 to 500	Cc1nc2cc(N3CCO[C@@H](c4cnn(C)c4)C3)nc(-c3ccc(F)c(F)c3F)c2c(=O)n1C [Example 9, 2,3-dimethyl-7-((2S)-2-(1-methyl-1H-pyrazol-4-yl)-4-morpholinyl)-5-(2,3,4-trifluorophenyl)pyrido[4,3-d]pyrimidin-4(3H)-one]
++++ (Emax>300)	50 to 500	Cc1nc2cc(N3CCO[C@@H](c4cnn(C)c4)C3)nc(-c3cc(F)c(F)cc3F)c2c(=O)n1C [Example 10, 2,3-dimethyl-7-((2S)-2-(1-methyl-1H-pyrazol-4-yl)-4-morpholinyl)-5-(2,4,5-trifluorophenyl)pyrido[4,3-d]pyrimidin-4(3H)-one]
++++ (Emax>300)	50 to 500	Cc1nc2cc(N3CCO[C@@H](c4cnn(C)c4)C3)nc(-c3cc(F)c(Cl)cc3F)c2c(=O)n1C [Example 11, 5-(4-chloro-2,5-difluorophenyl)-2,3-dimethyl-7-((2S)-2-(1-methyl-1H-pyrazol-4-yl)-4-morpholinyl)pyrido[4,3-d]pyrimidin-4(3H)-one]
–	50 to 500	Cc1ccc(-c2nc(N3CCO[C@@H](c4cnn(C)c4)C3)cc3nc(C)n(C)c(=O)c23)c(F)c1 [Example 12, 5-(2-fluoro-4-methylphenyl)-2,3-dimethyl-7-((2S)-2-(1-methyl-1H-pyrazol-4-yl)-4-morpholinyl)pyrido[4,3-d]pyrimidin-4(3H)-one]
++++ (Emax>300)	< 50	Cc1nc2cc(N3CCO[C@@H](c4cnn(C)c4)C3)nc(-c3ccc(Cl)cc3F)c2c(=O)n1CC(F)(F)F [Example 19, 5-(4-chloro-2-fluorophenyl)-2-methyl-7-((2S)-2-(1-methyl-1H-pyrazol-4-yl)-4-morpholinyl)-3-(2,2,2-trifluoroethyl)pyrido[4,3-d]pyrimidin-4(3H)-one]
++++ (Emax>300)	< 50	Cc1nc2cc(N3CCO[C@@H](c4cn[nH]c4)C3)nc(-c3ccc(Cl)cc3F)c2c(=O)n1C [Example 22, 5-(4-chloro-2-fluorophenyl)-2,3-dimethyl-7-((2S)-2-(1H-pyrazol-4-yl)-4-morpholinyl)pyrido[4,3-d]pyrimidin-4(3H)-one]

Source: patent US20250388574A1, “HETEROCYCLIC COMPOUNDS AS TRIGGERING RECEPTOR EXPRESSED ON MYELOID CELLS 2 AGONISTS AND METHODS OF USE” (AMGEN INC., priority 2020, published 2025)
